According to ChEMBL document CHEMBL1201862, “PubChem BioAssay data set” (2004):
Active and inactive are the calls of the source.

Key:
[1] = target: T1, Delta-type opioid receptor (Homo sapiens, UniProt P41143); experiment: HTS Image-Based Screen for Antagonists of the DOR Receptor. [Related pubchem assays (depositor defined):AID1777, AID1785, AID1786, AID2133]; format: functional
[2] = target: T2, Kappa-type opioid receptor (Homo sapiens, UniProt P41145); format: functional
Beta-galactosidase = Beta-galactosidase (Escherichia coli, UniProt Q8VNN2); format: functional
Mu-type opioid receptor = Mu-type opioid receptor (Homo sapiens, UniProt P35372); experiment: HTS Image-Based Screen for Agonists of the MOR Receptor. [Related pubchem assays (depositor defined):AID1777, AID1785, AID1786, AID2133]; format: functional;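 note: imaging of beta-arrestin GFP recruitment into spots after receptor activation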
[3] = target: T1, Delta-type opioid receptor; experiment: HTS Image-Based Screen for Agonists of the DOR Receptor. [Related pubchem assays (depositor defined):AID1777, AID1786, AID2133]; format: functional
[4] = target: T2, Kappa-type opioid receptor; format: functional; remark: listed apart in the source
[5] = target: T2, Kappa-type opioid receptor; experiment: SAR analysis of small molecule agonists of the kappa opioid receptor via a luminescent beta-arrestin assay - Set 3. [Related pubchem assays (depositor defined):AID1777, AID1785, AID1786, AID1966, AID2133, AID2136, AID2284, AID2500]; format: functional
[6] = target: T3, Tyrosine-protein phosphatase non-receptor type 22 (Homo sapiens, UniProt Q9Y2R2); format: functional
T3 sequence (Q9Y2R2 whole entry): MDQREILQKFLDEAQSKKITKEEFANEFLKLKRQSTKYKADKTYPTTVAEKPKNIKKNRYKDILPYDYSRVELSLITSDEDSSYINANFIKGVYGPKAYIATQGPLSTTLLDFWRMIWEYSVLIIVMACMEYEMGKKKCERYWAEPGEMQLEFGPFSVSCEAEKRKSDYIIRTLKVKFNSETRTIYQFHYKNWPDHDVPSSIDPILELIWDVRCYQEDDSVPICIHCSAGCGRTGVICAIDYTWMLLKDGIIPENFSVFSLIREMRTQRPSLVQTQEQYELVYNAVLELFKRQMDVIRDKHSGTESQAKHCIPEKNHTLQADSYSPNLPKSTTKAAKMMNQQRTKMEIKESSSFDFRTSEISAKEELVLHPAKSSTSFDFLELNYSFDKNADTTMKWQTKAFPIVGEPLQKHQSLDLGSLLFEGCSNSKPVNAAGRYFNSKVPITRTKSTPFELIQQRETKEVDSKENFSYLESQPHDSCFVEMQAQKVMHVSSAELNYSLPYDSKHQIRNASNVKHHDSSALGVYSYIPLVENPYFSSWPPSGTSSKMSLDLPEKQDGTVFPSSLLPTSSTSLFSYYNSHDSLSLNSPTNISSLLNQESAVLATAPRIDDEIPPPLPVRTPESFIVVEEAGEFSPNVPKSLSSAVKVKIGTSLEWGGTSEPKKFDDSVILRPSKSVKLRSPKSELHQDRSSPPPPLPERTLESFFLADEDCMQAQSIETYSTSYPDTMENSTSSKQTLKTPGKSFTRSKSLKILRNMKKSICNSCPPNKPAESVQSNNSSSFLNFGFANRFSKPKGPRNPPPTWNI

[7] = target: T4, Dual specificity protein phosphatase 3 (Homo sapiens, UniProt P51452); experiment: SAR VHR1 absorbance Assay for In Vitro dose response studies. [Related pubchem assays (depositor defined):AID1654, AID1661, AID1878, AID1992, AID2004]
T4 sequence (P51452 whole entry): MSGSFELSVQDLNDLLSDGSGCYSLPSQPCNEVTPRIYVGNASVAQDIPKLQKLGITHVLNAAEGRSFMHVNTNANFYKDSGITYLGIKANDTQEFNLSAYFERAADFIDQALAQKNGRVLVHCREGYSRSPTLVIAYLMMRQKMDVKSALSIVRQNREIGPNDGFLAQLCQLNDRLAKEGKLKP

[8] = target: T4, Dual specificity protein phosphatase 3; experiment: VHR1 phosphatase inhibitors, biochemical (AID 1878)
[9] = target: T3, Tyrosine-protein phosphatase non-receptor type 22; format: functional; remark: listed apart in the source
[10] = target: T4, Dual specificity protein phosphatase 3; experiment: VHR1 phosphatase inhibitors, primary screen, biochemical, absorbance, uHTS (AID 1654)
[11] = target: T5, Dual specificity protein phosphatase 6 (Rattus norvegicus, UniProt Q64346); experiment: MKP-3 phosphatase inhibitors, primary screen, biochemical, rat enzyme, in vitro (AID 425)
T5 sequence (Q64346 whole entry): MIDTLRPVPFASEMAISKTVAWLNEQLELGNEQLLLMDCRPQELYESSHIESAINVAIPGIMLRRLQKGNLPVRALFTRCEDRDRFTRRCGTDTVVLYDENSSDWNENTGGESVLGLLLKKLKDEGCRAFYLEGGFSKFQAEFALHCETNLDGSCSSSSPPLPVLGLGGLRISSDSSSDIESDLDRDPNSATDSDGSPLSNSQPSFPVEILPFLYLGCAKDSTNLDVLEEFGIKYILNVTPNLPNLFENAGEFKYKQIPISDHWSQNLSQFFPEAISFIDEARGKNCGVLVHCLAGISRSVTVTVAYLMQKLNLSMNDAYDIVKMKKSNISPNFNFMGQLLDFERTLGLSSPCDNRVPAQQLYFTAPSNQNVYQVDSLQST

NS3 = NS3 (Hepatitis C virus, UniProt A3EZJ3); experiment: PubChem AID 2173; design: species or system Hepacivirus hominis
Chain of NS3 (A3EZJ3 whole entry): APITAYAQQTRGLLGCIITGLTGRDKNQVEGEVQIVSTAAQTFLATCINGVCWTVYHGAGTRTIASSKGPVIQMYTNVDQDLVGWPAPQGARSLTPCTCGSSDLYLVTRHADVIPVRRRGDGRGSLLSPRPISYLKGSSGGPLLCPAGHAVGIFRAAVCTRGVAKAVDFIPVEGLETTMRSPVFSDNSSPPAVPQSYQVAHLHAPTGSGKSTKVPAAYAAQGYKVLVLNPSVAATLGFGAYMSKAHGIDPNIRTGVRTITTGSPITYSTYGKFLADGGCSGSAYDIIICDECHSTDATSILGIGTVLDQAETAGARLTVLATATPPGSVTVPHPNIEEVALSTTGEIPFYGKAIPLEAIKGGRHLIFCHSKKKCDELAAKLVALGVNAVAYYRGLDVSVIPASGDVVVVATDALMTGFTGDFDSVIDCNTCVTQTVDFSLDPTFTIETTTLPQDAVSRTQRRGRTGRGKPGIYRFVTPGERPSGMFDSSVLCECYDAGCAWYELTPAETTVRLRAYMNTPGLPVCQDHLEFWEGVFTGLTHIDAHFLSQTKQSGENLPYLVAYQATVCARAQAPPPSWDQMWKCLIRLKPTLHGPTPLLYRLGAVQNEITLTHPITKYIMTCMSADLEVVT

[12] = target: 26S proteasome non-ATPase regulatory subunit 14 (Homo sapiens, UniProt O00487); experiment: inhibition of proteasome subunit RPN11 – biochemical, fluorescence polarization, uHTS hits, confirmation (AID 602368); format: functional
[13] = target: T4, Dual specificity protein phosphatase 3; experiment: SAR VHR1 Fluorescent Assay for In Vitro dose response studies. [Related pubchem assays (depositor defined):AID1654, AID1661, AID1878, AID1992, AID2004, AID2070, AID2085]; format: functional
[14] = target: T4, Dual specificity protein phosphatase 3; experiment: SAR VHR1 Fluorescent Assay for In Vitro dose response studies Set 2. [Related pubchem assays (depositor defined):AID1654, AID1661, AID1878]; format: functional
[15] = target: T6, Voltage-gated N-type calcium channel alpha-1B subunit/Amyloid beta A4 precursor protein-binding family A member 1 (Homo sapiens, UniProt Q00975+Q02410); format: protein assay
T6 sequence (Q00975 whole entry): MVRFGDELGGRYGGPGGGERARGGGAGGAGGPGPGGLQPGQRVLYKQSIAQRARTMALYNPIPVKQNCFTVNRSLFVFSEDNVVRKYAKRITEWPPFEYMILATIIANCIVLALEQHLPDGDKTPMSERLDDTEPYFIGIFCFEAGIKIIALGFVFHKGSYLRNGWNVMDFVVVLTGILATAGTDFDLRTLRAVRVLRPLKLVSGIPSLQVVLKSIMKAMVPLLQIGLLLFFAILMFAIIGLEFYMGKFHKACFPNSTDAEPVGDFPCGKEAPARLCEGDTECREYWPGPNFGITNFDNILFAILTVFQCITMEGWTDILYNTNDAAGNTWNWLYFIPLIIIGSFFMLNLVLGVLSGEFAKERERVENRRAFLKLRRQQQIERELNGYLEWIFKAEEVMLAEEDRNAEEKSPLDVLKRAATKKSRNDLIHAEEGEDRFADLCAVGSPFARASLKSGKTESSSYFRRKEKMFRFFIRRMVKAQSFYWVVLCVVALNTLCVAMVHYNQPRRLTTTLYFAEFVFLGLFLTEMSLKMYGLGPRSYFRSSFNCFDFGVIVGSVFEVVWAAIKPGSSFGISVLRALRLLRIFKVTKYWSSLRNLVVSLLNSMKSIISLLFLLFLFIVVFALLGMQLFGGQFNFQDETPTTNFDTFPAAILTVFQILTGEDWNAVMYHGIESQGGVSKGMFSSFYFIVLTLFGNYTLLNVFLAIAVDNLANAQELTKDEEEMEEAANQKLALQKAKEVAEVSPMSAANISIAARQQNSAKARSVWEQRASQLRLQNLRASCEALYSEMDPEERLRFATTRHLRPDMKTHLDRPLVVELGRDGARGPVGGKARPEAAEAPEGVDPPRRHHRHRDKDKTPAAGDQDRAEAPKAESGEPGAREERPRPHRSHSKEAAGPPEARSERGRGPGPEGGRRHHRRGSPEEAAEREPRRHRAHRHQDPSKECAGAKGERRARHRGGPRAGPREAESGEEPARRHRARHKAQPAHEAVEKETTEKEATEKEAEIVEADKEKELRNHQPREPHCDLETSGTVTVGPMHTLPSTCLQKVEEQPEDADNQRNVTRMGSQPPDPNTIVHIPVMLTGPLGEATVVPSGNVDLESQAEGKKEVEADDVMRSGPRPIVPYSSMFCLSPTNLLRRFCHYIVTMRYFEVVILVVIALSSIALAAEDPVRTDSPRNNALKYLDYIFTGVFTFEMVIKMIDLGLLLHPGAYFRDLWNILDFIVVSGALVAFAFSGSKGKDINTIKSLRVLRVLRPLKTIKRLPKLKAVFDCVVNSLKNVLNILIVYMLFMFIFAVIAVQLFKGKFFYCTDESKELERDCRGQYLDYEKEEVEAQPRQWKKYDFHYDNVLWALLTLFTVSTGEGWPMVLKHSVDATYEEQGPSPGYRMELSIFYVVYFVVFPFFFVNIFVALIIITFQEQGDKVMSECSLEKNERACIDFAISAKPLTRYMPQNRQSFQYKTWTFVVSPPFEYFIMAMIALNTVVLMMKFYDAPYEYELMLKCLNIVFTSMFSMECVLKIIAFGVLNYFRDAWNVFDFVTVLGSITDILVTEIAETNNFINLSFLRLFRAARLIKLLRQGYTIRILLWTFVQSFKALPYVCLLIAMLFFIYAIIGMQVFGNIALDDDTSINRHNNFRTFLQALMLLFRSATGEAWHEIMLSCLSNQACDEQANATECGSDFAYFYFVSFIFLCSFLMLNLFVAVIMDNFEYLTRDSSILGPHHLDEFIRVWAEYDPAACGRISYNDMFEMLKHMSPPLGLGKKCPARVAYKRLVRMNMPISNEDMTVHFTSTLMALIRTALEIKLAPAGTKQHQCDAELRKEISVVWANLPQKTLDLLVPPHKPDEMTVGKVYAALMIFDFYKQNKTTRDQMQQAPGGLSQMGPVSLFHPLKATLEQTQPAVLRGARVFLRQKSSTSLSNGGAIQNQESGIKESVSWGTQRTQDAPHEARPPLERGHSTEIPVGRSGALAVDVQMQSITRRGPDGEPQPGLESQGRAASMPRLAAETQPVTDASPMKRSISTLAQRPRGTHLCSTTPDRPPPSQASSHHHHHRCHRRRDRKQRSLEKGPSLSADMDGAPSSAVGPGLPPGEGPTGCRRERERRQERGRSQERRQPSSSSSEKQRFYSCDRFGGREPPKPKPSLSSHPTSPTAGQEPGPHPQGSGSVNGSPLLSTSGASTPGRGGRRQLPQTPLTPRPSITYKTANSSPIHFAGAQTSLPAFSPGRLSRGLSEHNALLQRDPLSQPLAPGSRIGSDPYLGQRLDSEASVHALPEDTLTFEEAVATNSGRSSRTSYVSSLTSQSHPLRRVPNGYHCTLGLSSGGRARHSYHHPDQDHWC
T6 sequence (Q02410 whole entry): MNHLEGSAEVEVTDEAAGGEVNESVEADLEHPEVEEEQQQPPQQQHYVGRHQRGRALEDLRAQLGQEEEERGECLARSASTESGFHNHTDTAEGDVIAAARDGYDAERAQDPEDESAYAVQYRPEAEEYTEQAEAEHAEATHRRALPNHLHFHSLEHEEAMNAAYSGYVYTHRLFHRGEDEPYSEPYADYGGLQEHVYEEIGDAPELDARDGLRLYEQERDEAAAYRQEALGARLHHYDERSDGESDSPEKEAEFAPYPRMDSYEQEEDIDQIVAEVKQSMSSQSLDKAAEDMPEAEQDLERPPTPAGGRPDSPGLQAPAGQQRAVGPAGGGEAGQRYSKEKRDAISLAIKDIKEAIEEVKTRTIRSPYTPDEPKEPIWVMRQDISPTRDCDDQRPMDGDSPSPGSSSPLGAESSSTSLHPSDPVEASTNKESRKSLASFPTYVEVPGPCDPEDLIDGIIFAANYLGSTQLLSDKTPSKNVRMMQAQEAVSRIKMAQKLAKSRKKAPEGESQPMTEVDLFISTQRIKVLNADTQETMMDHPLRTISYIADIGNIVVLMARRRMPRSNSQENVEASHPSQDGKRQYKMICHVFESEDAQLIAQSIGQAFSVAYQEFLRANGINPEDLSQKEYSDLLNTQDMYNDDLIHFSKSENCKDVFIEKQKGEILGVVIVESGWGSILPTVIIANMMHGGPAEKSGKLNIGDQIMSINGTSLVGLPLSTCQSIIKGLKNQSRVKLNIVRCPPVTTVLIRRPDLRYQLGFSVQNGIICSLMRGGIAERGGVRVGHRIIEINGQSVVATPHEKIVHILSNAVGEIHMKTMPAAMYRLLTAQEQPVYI

[16] = target: Induced myeloid leukemia cell differentiation protein Mcl-1 (Homo sapiens, UniProt Q07820); format: functional
[17] = target: T7, Small ubiquitin-related modifier 1 (Homo sapiens, UniProt P63165); experiment: inhibitors of SUMO1 peptide binding, dose response, biochemical, fluorescence polarization, uHTS hits (AID 624382); format: functional; details: read-out: IC50_Mean
T7 sequence (P63165 whole entry): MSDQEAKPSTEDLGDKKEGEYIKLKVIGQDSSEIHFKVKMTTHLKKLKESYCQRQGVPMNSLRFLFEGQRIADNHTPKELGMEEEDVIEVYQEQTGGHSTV

Prothrombin = Prothrombin (Bos taurus, UniProt P00735); experiment: thrombin inhibition, dose response, biochemical, fluorescence polarization, uHTS hits (AID 602369); format: functional
[18] = target: T6, Voltage-gated N-type calcium channel alpha-1B subunit/Amyloid beta A4 precursor protein-binding family A member 1; format: protein assay; remark: listed apart in the source
[19] = target: T7, Small ubiquitin-related modifier 1; experiment: inhibitors of SUMO1 partner interactions, dose response, biochemical, FRET (AID 624383); format: functional; details: read-out: IC50_Mean
[20] = target: T5, Dual specificity protein phosphatase 6; format: functional
[21] = target: T8, Tyrosine-protein phosphatase non-receptor type 7 (Homo sapiens, UniProt P35236); experiment: redox-dependent HePTP inhibition, mechanism study, biochemical, fluorescence (AID 2068); format: functional
T8 sequence (P35236 whole entry): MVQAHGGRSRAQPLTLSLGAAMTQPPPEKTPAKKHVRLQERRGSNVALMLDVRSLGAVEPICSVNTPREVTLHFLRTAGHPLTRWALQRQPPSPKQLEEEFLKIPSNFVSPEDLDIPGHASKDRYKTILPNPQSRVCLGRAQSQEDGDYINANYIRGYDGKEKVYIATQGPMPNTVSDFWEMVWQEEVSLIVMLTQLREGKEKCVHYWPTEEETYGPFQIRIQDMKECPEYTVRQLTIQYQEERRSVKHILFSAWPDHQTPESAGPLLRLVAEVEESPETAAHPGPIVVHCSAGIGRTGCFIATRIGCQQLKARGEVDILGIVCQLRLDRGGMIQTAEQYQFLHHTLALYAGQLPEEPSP

[22] = target: Eukaryotic translation initiation factor 4E (Mus musculus, UniProt P63073); experiment: eIF4E–eIF4G protein interaction inhibitors, dose response, biochemical, TR-FRET (AID 855); format: functional;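 note: potency for disrupting eIF4E binding to eIF4GI seen as loss of FRET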
[23] = target: T8, Tyrosine-protein phosphatase non-receptor type 7; format: functional
[24] = target: 72 kDa type IV collagenase (Homo sapiens, UniProt P08253); experiment: Dose Response validation of uHTS RPN11 inhibitor hits using a MMP-2 Fluorescence assay.; format: functional

T2 sequence (P41145 whole entry): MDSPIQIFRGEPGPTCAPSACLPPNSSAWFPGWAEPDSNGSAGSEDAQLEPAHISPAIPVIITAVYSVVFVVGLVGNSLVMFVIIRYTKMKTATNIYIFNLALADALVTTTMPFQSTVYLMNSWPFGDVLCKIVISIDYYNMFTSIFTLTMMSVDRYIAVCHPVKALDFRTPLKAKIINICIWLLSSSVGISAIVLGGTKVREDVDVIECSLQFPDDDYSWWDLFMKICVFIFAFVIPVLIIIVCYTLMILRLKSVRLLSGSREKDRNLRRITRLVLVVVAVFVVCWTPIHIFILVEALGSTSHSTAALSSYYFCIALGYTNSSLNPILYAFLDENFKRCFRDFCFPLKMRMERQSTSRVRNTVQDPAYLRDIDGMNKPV
T1 sequence (P41143 whole entry): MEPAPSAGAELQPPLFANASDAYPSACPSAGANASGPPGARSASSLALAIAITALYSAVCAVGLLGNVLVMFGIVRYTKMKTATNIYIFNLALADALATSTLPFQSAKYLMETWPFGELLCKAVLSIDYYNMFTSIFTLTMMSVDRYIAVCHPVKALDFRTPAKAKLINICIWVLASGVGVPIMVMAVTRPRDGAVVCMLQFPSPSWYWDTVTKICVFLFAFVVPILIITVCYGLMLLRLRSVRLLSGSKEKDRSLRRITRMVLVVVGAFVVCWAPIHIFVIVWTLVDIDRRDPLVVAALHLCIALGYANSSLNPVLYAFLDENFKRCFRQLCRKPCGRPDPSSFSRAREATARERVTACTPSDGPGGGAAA

COc1ccc(S(=O)(=O)N(CC(=O)Nc2ccc(S(=O)(=O)N3CCOCC3)cc2)c2ccccc2)cc1
IC50 [1]: > 32 µM (inactive) | IC50 [2]: 4.04 µM | EC50 (Beta-galactosidase): > 31.5 µM (inactive) | EC50 (Mu-type opioid receptor): > 32 µM (inactive) | EC50 [3]: > 32 µM (inactive) | IC50 [4]: 2.82 µM (active)

c1ccc(CSc2nnc(-c3ccncc3)n2Cc2ccco2)cc1
EC50 [5]: > 20 µM (inactive)

CCOC(=O)c1sc2nc3c(SCCC(=O)O)cc(C(=O)c4cc(OC)ccc4O)cn3c(=O)c2c1C
IC50 [6]: 2.02 µM (active) | IC50 [7]: 1.29 µM (active) | IC50 [8]: < 1.23 µM (inactive) | IC50 [9]: 7.26 µM (active) | IC50 [10]: 4.87 µM (active) | IC50 [11]: 101 µM (not active) | IC50 (NS3): 2.58 µM (active) | IC50 [12]: 8.13 µM (active) | IC50 [13]: 0.48 µM (active) | IC50 [14]: < 0.195 µM (active) | IC50 [15]: 36.2 µM (active) | IC50 [16]: 1.24 µM (active) | IC50 [17]: > 66.6 µM (inactive) | IC50 (Prothrombin): 72.5 µM (active) | IC50 [18]: 8.15 µM (active) | IC50 [19]: 5.54 µM (active) | IC50 [20]: 59.5 µM (active) | IC50 [21]: 0.209 µM (active) | IC50 [22]: 50 µM (inactive) | IC50 [23]: 1.68 µM (active) | IC50 [24]: 1.04 µM (active)
